Measured values reported in patent US20180264134A1, “A COMPOSITION OF GOLD NANOPARTICLES HAVING ANTIMICROBIAL PEPTIDES BOUND ON THEIR SURFACE FOR USE THE TREATMENT OF WOUND HEALING OR IN THE TREATMENT OF ISCHEMIC OR VASCULAR DISEASES OR IN THE TREATMENT OF SKIN DISORDERS” (priority 2015, published 2018).

How the values were obtained:
[1] = system: HUVECs; assay: Membrane potential by DiOC5(3) flow cytometry in HUVECs; assay type: cell-based, human; conditions: 5 h exposure
Protocol: In an embodiment the membrane potential can be determined by: HUVEC and HaCaT cells were seeded at a density of 4×10^4 cells/cm^2 and in 24-well plates and cultured for 24 h. Either LL37 Au-NPs or Au-NPs suspended in culture medium at different concentrations (25, 50, 100 and 200 μg/mL, n=3) were added to cells. Soluble LL37 were also used in the concentration of 0.5, 1, 10, 30, 60 μg/mL. After 5 and 48 h, cells were harvested, resuspended in medium with 5 nM of DiOC5(3) (Sigma-Aldrich) and incubated for 5 min at room temperature in the dark, prior to the analysis with the flow cytometer (FACSCalibur, BD Biosciences). Cells treated with gramicidin (10 μM) or valinomycin (10 μM) were used as controls for cell depolarization and hyperpolarization, respectively.

[2] = system: HUVECs; assay: VEGF secretion in HUVECs (ELISA); assay type: cell-based, human; conditions: 24 h, LL37 5 μg/mL, NPs 200 μg/mL
Protocol: In an embodiment measurement of VEGF amount in HUVECs can be perform by the following method: HUVECs were seeded at a density of 4×10^4 cells/cm^2 in 24-well plates and cultured for 24 h in EGM-2 without VEGF. LL-37 (5 μg/mL), LL37 AUNPs and AuNPs (200 μg/mL) suspended in culture medium without VEGF at different concentrations were added to cells. LL-37 (5 μg/mL) and LL-37 AUNPs (200 μg/mL) were also incubated in the presence of 10 μM of FPRL1 Antagonist. After 24 h of incubation, cell media from all the conditions were collected and used to quantify VEGF amount in supernatants. In order to calculate the amount of VEGF in supernatants, Human VEGF ELISA development Kit (PeproTech) was used according to the manufacture's instructions. A calibration curve was used for the ranging between 0-1000 pg/mL VEGF.

**Q.** Which concentration causing depolarization [1] does the source give for `CC[C@H](C)[C@H](NC(=O)[C@H](CCCCN)NC(=O)[C@H](CCC(=O)O)NC(=O)[C@H](CCCCN)NC(=O)[C@H](CO)NC(=O)[C@H](CCCCN)NC(=O)[C@H](CCCNC(=N)N)NC(=O)[C@H](Cc1ccccc1)NC(=O)[C@H](Cc1ccccc1)NC(=O)[C@H](CC(=O)O)NC(=O)CNC(=O)[C@H](CC(C)C)NC(=O)[C@@H](N)CC(C)C)C(=O)NCC(=O)N[C@@H](CCCCN)C(=O)N[C@@H](CCC(=O)O)C(=O)N[C@@H](Cc1ccccc1)C(=O)N[C@@H](CCCCN)C(=O)N[C@@H](CCCNC(=N)N)C(=O)N[C@H](C(=O)N[C@H](C(=O)N[C@@H](CCC(N)=O)C(=O)N[C@@H](CCCNC(=N)N)C(=O)N[C@H](C(=O)N[C@@H](CCCCN)C(=O)N[C@@H](CC(=O)O)C(=O)N[C@@H](Cc1ccccc1)C(=O)N[C@@H](CC(C)C)C(=O)N[C@@H](CCCNC(=N)N)C(=O)N[C@@H](CC(N)=O)C(=O)N[C@@H](CC(C)C)C(=O)N[C@H](C(=O)N1CCC[C@H]1C(=O)N[C@@H](CCCNC(=N)N)C(=O)N[C@H](C(=O)N[C@@H](CCC(=O)O)C(=O)N[C@@H](CO)C(=O)N[C@@H](CS)C(N)=O)[C@@H](C)O)C(C)C)[C@@H](C)CC)C(C)C)[C@@H](C)CC` [LL37] here?
**A.** above 30 μg/mL

**Q.** What about the concentration causing hyperpolarization [1] of the same compound?
**A.** below 30 μg/mL

**Q.** And the “secretion of VEGF165” value [2]?
**A.** induce the secretion
